Measurements taken from article PMC12057046, “Elucidation of short linear motif-based interactions of the MIT and rhodanese domains of the ubiquitin-specific protease 8” (Biology Direct, 2025).

How the values were obtained:
Assay type in all cases: binding, human
[1] = system: USP8 MIT domain; test: Peptide-phage display-based deep mutational scanning (DMS), USP8 MIT domain; conditions: for DMS-derived binding motif: M13 phage, triplicate selections in biological replicates, NGS, PSSM
In short: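 Four rounds of phage selection against immobilized GST-tagged bait (GST control pre-clearing) at 4 °C, using human disorderome or 16-mer deep mutational scanning library (all non-Cys substitutions), ≥3 replicates. Enriched pools sequenced by Illumina NGS; replicate-summed counts converted to averaged fractions and frequency PSSMs per wild-type peptide.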

[2] = system: USP8 MIT domain; test: Proteomic peptide-phage display (ProP-PD) selection against USP8 MIT domain; parameters: Confidence: scale not given here; conditions: for NGS counts (%): ProP-PD, human disorderome library, GST-tagged MIT bait, four rounds of selection, percent of NGS counts associated with each peptide, Fig. 1B; for max_counts: Total NGS counts; for Confidence: calculated based on four metrics: overlapping peptides, replicated peptides, motif match, peptide counts; for Counts: fraction of NGS counts for a selection; for Promiscuity: number of baits selections where the peptide has been observed, calculated on the domain level; for Replicates: number of screens against the bait protein in which the peptide has been found; for Specificity: proportion for the current bait of the total NGS read counts of the peptide for all baits screened with this library
Experimental: We explored the peptide-binding of the USP8 MIT domain by using the purified GST-tagged MIT domain as bait in proteomic peptide-phage display (ProP-PD) selections and a library designed to display the predicted unstructured regions of the human proteome. The peptide-coding regions of the binding-enriched phage pools were analysed by next-generation sequencing (NGS). After filtering for high confidence ligands, ten ligands remained (Fig. 1B; Supplementary Table S1). None of the ten identified protein-protein interactions had been previously reported, based on comparison with the information available in IntAct, HIPPIE and BioGrid (February 2025). Of the USP8 interacting proteins found, the D site-binding protein (DBP), which is a clock-controlled transcription factor, appears as an interesting ligand as USP8 has been reported to be involved in controlling the circadian rhythm. Also, the CCDC88A-encoded protein Girdin is an interactor of potential biological relevance as it is a scaffolding protein involved in the EGFR pathway which USP8 is known to regulate. At the motif level, there was no shared consensus motif among the ten peptide ligands. However, by manual inspection we noticed that four of the peptides contained a shared [LI]xxR[IY]xxL sequence, which appears to be a variation of the [DE]xxLxxRLxxL[KR] MIM1 motif described in the Eukaryotic Linear Motif resource (ELM) (Fig. 1B). We performed a SPOT array alanine scanning analysis in which peptides are synthesised on a membrane, and where each amino acid position of the peptide is mutated to alanine (or glycine if alanine is in the wild type peptide) to evaluate the effect of the amino acid residues in binding. We tested two peptides containing the apparent MIM1-like motif, one from Girdin (Girdin1192 − 1207) and one from the histone-lysine N-methyltransferase SETD1B (SETD1B492 − 507). […] AlphaFold3 (AF3) modelling of the four peptides with the variant MIM1 motif and the MIT domain docked the peptides with high confidence (ipTM scores: HIVEP1_741 − 756: 0.87, Girdin1192 − 1207: 0.85, MLPH481 − 496: 0.82, SETD1B492 − 507: 0.75) at the expected MIM1 binding pocket (Fig. 1D). […] However, the USP8 MIT selection was dominated (more than 94% of NGS counts) by two peptides that lack an apparent MIM1 motif. The two peptides were from the EF-hand calcium-binding domain-containing protein 12 (EFCAB12_1 − 16: […]) and from DBP (DBP116 − 131: […]) (Fig. 1B). […] In comparison to this, the EFCAB12_1 − 16 peptide shares a potential Dx[YF]xxxH[SG] motif with the DBP116 − 131 (Fig. 1B). […] The AF3 model of DBP116 − 131 peptide supports the interaction of D120 of the DBP116 − 131 peptide with the residues K74 and N71 in the MIT domain (Fig. 1G), emphasizing the significance of the aspartic acid at this position. […] Of them, two peptides (SYNE2_853 − 868 and PKNOX1_56 − 71) where placed in the same binding site as the Girdin and DBP peptides with high confidences by AF3 modelling (ipTM 0.92 and 0.74; Supplementary Fig. S3).
Four rounds of phage selections were carried out using the second generation human disorderome library or the constructed deep mutational scanning library. At least three individual replicates were used for each bait protein. 10 µg of GST-tagged proteins or GST control (diluted in PBS from the stock of proteins kept in the purification elution buffer) were immobilized in 100 µL PBS on a 96-well MaxiSorp (Nunc) plate overnight at 4 °C. The plates were incubated with blocking buffer (with 0.5% BSA in PBS) for 1 h at 4 °C followed by washing with 0.05% Tween 20 in PBS four times. The naïve phage library (10^11 CFU) was diluted in 1/5th volume PEG/NaCl (20% PEG-8000, 0.4 M NaCl) and 1X PBS, incubated on ice for 10 min and centrifuged at 10,000 [drawing 3] g for 10 min. The pellet was resuspended in the volume of PBS (100 µL/ well). […]

[3] = system: USP8 MIT domain; test: SPOT array of predicted peptides from known interactors, USP8 MIT domain; conditions: for Percentage (%) normalized to highest intensity and corrected for background: SPOT array, GST-tagged MIT 100 µM, overnight 4 °C, chemiluminescence, highest intensity = DNAJB6; for Percentage (%): Supplementary Fig. 4B, normalized to the highest intensity and corrected for background
Excerpt: To further assess the SLiM-based interactions of the USP8 MIT domain, we designed a peptide array tiling 24 potential binding sites in previously reported USP8 interactors. We used SLiMSearch to search for peptides that contain shorter or longer matches to the motif (Supplementary Table S4A). […] The DNAJB6_118 - 130 peptide was predicted as a binder based on a partial DFx{2,3}R motif. The DNAJB6-USP8 interaction is supported by previous GST-pulldown experiments and colocalization of the two proteins in male mouse germ cells, and the interaction is thought to be of importance to the protein quality control to yield functional spermatozoa. In the case of the CDH1_863 - 877 peptide it was predicted as USP8 MIT ligand based on the presence of an RFxxL motif. The previous support of the CDH1-USP8 interaction is based on proximity labelling mass spectrometry, and our results thus provide evidence for a binary interaction between the two proteins and define a binding site. To confirm that the motifs used to predict the interactions were of importance for binding we designed an alanine scanning peptide SPOT array analysis of the DNAJB6_118 - 130 and the CDH1_863 - 877 peptides. […] In summary, we find that the USP8 MIT domain binds to a MIM1-like motif that can be expressed by [[…]], as well as degenerate variants thereof. […] The membranes of predicted peptides were purchased by JPT Peptide Technologies (Berlin, Germany). The membranes were incubated with blocking buffer containing 5% skim milk in TBST (50 mM Tris, 150 mM NaCl pH 7.5, 0.05% Tween-20) for two hours at room temperature. The blocked membranes were incubated with GST-tagged proteins (100 μM for MIT domain and 150 μM for the Rhodanese domain) in blocking buffer overnight at 4 °C. After rinsed with TBST the membranes were incubated with HRP-conjugated anti-GST antibody (Cytiva, RPN1236; 1:3000 dilution) in blocking buffer for 1 h at 4 °C and subsequently rinsed with TBST to remove any excess antibody. The ECL reagent (Clarity Max Western ECL substrate, 1705062, BioRad) was used for chemiluminescence read-out with the ChemiDoc Imaging system (BioRad). The images were analysed with Fiji (ImageJ2 version 2.9.0). […] used to design the peptide arrays with known interactors predicted to contain the motifs. The background signal intensity was subtracted, and the corrected signal intensities were normalized to the positive control and presented as percentage.

MDDDYEAYHSLFLSLL [EFCAB12_1 − 16]
PSSM score, enrichment_relative_to_wt ([1]; EFCAB12 MDDDYEAYHSLFLSLL, library USP8_DMS, days 2,3, quotient of wild type and mutant frequencies per column, highest divided by lowest): 1 | DMS-derived binding motif [1]: [DE]Fx{2,3}R[FY]xxLL | NGS counts (%) [2]: 78.22% | max_counts [2]: 3851 | Confidence [2]: 3 | Counts [2]: 0.08013 | Promiscuity [2]: 6 | Replicates [2]: 6 | Specificity [2]: 0.9605

MDLLFGRRKTPEELL [CHMP2A, Charged multivesicular body protein 2a peptide]
Percentage (%) normalized to highest intensity and corrected for background [3]: -8% | Percentage (%) [3]: -8%

MVSWGRFICLVVVTM [FGFR2, Fibroblast growth factor receptor 2 peptide]
Percentage (%) normalized to highest intensity and corrected for background [3]: 2.8% | Percentage (%) [3]: 3%

NKTLEYKIEILEKT [KIF23, Kinesin-like protein KIF23 peptide]
Percentage (%) normalized to highest intensity and corrected for background [3]: 7% | Percentage (%) [3]: 7%

PPSSSLELLASLTP [PTPN23, Tyrosine-protein phosphatase non-receptor type 23 peptide]
Percentage (%) normalized to highest intensity and corrected for background [3]: -7% | Percentage (%) [3]: -7%

PQYTNLGLLNSMDQ [TP63 A14, Tumor protein 63 peptide, array position A14]
Percentage (%) normalized to highest intensity and corrected for background [3]: 8% | Percentage (%) [3]: 8%

QAAIALSLLESPKI [USP28, Ubiquitin carboxyl-terminal hydrolase 28 peptide]
Percentage (%) normalized to highest intensity and corrected for background [3]: 1.29% | Percentage (%) [3]: 1%

QAIYRHPLFPLLALLF [PKNOX1_56 − 71, Homeobox protein PKNOX1 peptide]
NGS counts (%) [2]: 0.95% | max_counts [2]: 107 | Confidence [2]: 2 | Counts [2]: 0.001294 | Promiscuity [2]: 21 | Replicates [2]: 1 | Specificity [2]: 0.5

SEVSDIESRIAALRAA [MLPH481 − 496, melanophilin peptide]
DMS-derived binding motif [1]: [DE]Fx{2,3}R[FY]xxLL | NGS counts (%) [2]: 0.52% | max_counts [2]: 33 | Confidence [2]: 3 | Counts [2]: 0.000511 | Promiscuity [2]: 2 | Replicates [2]: 3 | Specificity [2]: 0.9365

TKTLEERISKLISDNE [HIVEP1_741 − 756, Zinc finger protein 40 peptide]
NGS counts (%) [2]: 0.21% | max_counts [2]: 19 | Confidence [2]: 2 | Counts [2]: 0.001178 | Promiscuity [2]: 1 | Replicates [2]: 2 | Specificity [2]: 1

VLSKRKGGNVGKSKRD [ERVK-21, Endogenous retrovirus group K member 21 Env polyprotein peptide 676-691]
NGS counts (%) [2]: 0.16% | max_counts [2]: 18 | Confidence [2]: 2 | Counts [2]: 0.000837 | Promiscuity [2]: 4 | Replicates [2]: 1 | Specificity [2]: 0.5806
